Activity calls are given as the source filed them.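 Rule for the calls: active = compounds giving half or more protection of infected cells from virus-caused growth loss, again on retest; inactive = the rest.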
Test system: CEM cells HIV-1 protection, formazan growth assay
Experiment: NCI AIDS Antiviral Assay
Conditions: for IC50: measured here: growth of uninfected CEM cells
Procedure, shortened: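 Five concentrations of each compound were applied to infected and uninfected human CEM cells. Protection from HIV-1 was judged from growth measured with a soluble formazan assay.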

SMILES | EC50 | IC50 | outcome
O=C(c1cccs1)N(C(=O)N1CCC(c2ccccc2)CC1)c1ccccc1 | > 200 µM | > 200 µM | –
CC(C)(C)c1cc(C(C)(C)C)c(P=C(Cl)Cl)c(C(C)(C)C)c1 (configuration not stated) | > 100 µM | > 100 µM | –
CS(=O)(=O)NNS(=O)(=O)c1ccc2ccccc2c1 | > 224 µM | > 224 µM | –
O=CC[C@]12CC(=O)OC(C=CC13OCCO3)C2 | > 200 µM | > 200 µM | –
CC(=O)NNc1nc(C)c(C(/C=C/c2ccc(NC(C)=O)cc2)=N/NS(=O)(=O)c2ccc(C)cc2)s1 | > 57.5 µM | > 57.5 µM | –
COC(=O)[C@@H]1CN(C(C)=O)C(=O)N1C(=O)OCc1ccccc1 | > 200 µM | > 200 µM | –
OCc1ccc2c(c1)CC1(Cc3ccccc3C1)C2 | > 200 µM | 20 µM | –
N#C/C(C(=O)Nc1ccccc1)=C(/N)N1CCCCC1 | > 200 µM | > 200 µM | –
CC1=Nc2c([nH]c(=S)[nH]c2=O)NC(c2ccc(Cl)c(Cl)c2)C1 (configuration not stated) | > 7.76 µM | > 7.76 µM | –
COc1c(OC)c(OC)c(-c2cc(=O)c3c(OC)c(OC)c(OC)c(OC)c3o2)c(OC)c1OC | > 200 µM | 56.2 µM | –
O=C1/C(=C\Oc2ccc(F)cc2)N2CCC1CC2 | > 200 µM | 102 µM | –
O=Cc1cn(S(=O)(=O)c2ccccc2)c2ccccc12 | – | – | inactive
CC(=O)NNC=N/C(C#N)=C(\N)C#N | > 200 µM | > 200 µM | –
O=C(NCCCCNCCCNC(=O)c1ccc([N+](=O)[O-])cc1)c1ccc([N+](=O)[O-])cc1 | > 200 µM | 112 µM | –
C/C(=N/N(C=O)C[n+]1ccccc1)C(CN(CC(C)C)CC(C)C)C(=O)Nc1ccc(C)cc1C (configuration not stated) | > 69.2 µM | > 69.2 µM | –
Cc1nc(-n2nc(-c3ccccc3)cc2-c2ccccc2)sc1C(=O)/C=C/c1ccc(Cl)cc1 | > 14.8 µM | > 14.8 µM | –
CC1(O)CC(C(F)(F)F)(C(F)(F)F)OC1=O (configuration not stated) | > 200 µM | > 200 µM | –
COc1cc2ccnc3c2c(c1OC)-c1ccccc1C3=O | – | – | inactive
O=C1C2=Cc3ccccc3CCN2c2ccccc21 | > 200 µM | 26.9 µM | –
CC1(C)COC(Cc2ccccc2)=N1 | > 200 µM | > 200 µM | –
CCCCCC=C(c1cc(Cl)c(O)c(C(=O)O)c1)c1cc(Cl)c(O)c(C(=O)O)c1 | > 95.5 µM | > 95.5 µM | –
CNS(=O)(=O)NNS(=O)(=O)c1ccc(OC)cc1 | > 617 µM | 324 µM | –

SMILES | EC50 | IC50 | outcome
CC1(C)C(=O)N=C(N)N1C(=O)OCc1ccccc1 | > 200 µM | > 200 µM | –
BrCC[N+]12CC[N+](CCBr)(CC1)C2 | > 525 µM | 25.7 µM | –
CCSC(=O)/C=C1\CN(C(=O)OC(C)(C)C)C1C(=O)OC(C)(C)C (configuration not stated) | > 200 µM | 1.1 µM | –
COc1cc([C@H]2CC(=O)C[C@H](c3cc(OC)c(OC)c(OC)c3)C23C(=O)c2ccccc2C3=O)cc(OC)c1OC | > 200 µM | > 200 µM | –
CN(C)CC1=C(O)c2ccccc2C(=O)C1=O | > 1070 µM | > 1070 µM | –
CC1CC[N+]2(C)CCCC12 (configuration not stated) | > 1120 µM | > 1120 µM | –
O=C(CC(=O)Nc1ccccc1)NNC(Sc1ccccc1)c1cc(N=Nc2ccc(Br)cc2)ccc1O (configuration not stated) | – | – | inactive
C/C=C/c1cc(=O)c([C@@H]2OC(=O)c3cc(OC)cc(OC)c32)co1 | > 200 µM | 83.2 µM | –
S=C1SCN(C2CCCCCCCCCCC2)CN1C1CCCCCCCCCCC1 | – | – | inactive
COc1ccc(C2CC(c3ccc4ccccc4c3O)=NN2)cc1OC (configuration not stated) | > 200 µM | 42.7 µM | –
Cc1cccc(N2C(=O)C(Cl)=C(Cl)C2=O)c1 | – | – | inactive
O=S(=O)(c1ccc(N=C=S)cc1)N1CCCCC1 | > 200 µM | 97.7 µM | –
O=c1c(-c2ccc(O)c(O)c2)coc2cc(O)c(O)cc12 | > 200 µM | 24.5 µM | –
Cc1cc(C)c([O-])c(-[n+]2c(-c3ccccc3)cc(-c3ccccc3)cc2-c2ccccc2)c1 | > 17 µM | 2.88 µM | –
CCOc1ccc(NC(=O)CCC(=O)NN)cc1 | > 724 µM | 603 µM | –
Nn1c(-c2cccc(Cl)c2)nc2ccccc2c1=O | – | – | inactive
Cc1nnc(N2C(=O)C(=Cc3ccc(Cl)cc3)N=C2c2ccc(Cl)cc2)nc1/C=C\c1ccc(N(C)C)cc1 | 47.9 µM | 110 µM | –
Cc1cn(COCC(O)C[N+](=O)[O-])c(=O)[nH]c1=O (configuration not stated) | > 200 µM | > 200 µM | –
CC(=O)NC1C(OCc2ccccc2)OC(COC(=O)CCCCCCCCCCNC(=O)CCNc2ccc([N+](=O)[O-])c3[nH]c4ccc(O)cc4c(=O)c23)C(O)C1OC(C)C(=O)N[C@H](C(=O)N[C@H](CCC(=O)O)C(N)=O)C(C)C (some centres not stated) | > 224 µM | 87.1 µM | –
COc1ccc(OC)c(-n2nnc3ccccc3c2=O)c1 | > 302 µM | 174 µM | –
C[C@H]1CCC/C=C/[C@@H]2C[C@H](O)C[C@H]2[C@H](O)/C=C/C(=O)O1 | > 891 µM | 0.282 µM | –
Cc1cc(C(=O)N2CCN(Cc3ccccc3)CC2)c(C)o1 | > 741 µM | 324 µM | –

SMILES | EC50 | IC50 | outcome
CCOC(=O)C1=NN(c2ccc([N+](=O)[O-])cc2)[C@@]2(C)C[C@]3(c4ccccc4)N(c4ccc([N+](=O)[O-])cc4)N=C(C(=O)OCC)N3c3ccccc3N12 | > 200 µM | > 200 µM | –
CCOC(=O)/C(=C(/N)C1OC(COC(c2ccccc2)(c2ccccc2)c2ccccc2)C2OC(C)(C)OC12)C1CC(=O)N(C)C1=O (configuration not stated) | > 200 µM | 11.7 µM | –
Cc1cc(C)nc(NS(=O)(=O)c2ccc(Nc3c4ccccc4nc4c(C(=O)NCCCN(CCO)CCO)cccc34)cc2)n1 | > 200 µM | 6.46 µM | –
O=NNc1nc(-c2ccccn2)nc2ccccc12 | > 200 µM | 7.94 µM | –
CCOC(=O)c1c(SCCN2CCCCC2)n(-c2ccccc2)c(=S)n(-c2ccccc2)c1=O | > 20 µM | > 20 µM | –
CC[N+]1(C)CCC(O)(c2ccc(Cl)c(Cl)c2)C(C(=O)c2ccc(Cl)c(Cl)c2)C1 (configuration not stated) | > 200 µM | 22.4 µM | –
CCOc1ccccc1N1C(=O)C(=O)C(c2nc3ccccc3o2)C(=O)C1=O | – | – | inactive
CCOc1ccc2nc3nc(=O)[nH]c(C)c3c(NCCCN(CC)CC)c2c1 | > 200 µM | > 200 µM | –
C=CCN1CC2CN=NC2(C#N)C1 (configuration not stated) | > 200 µM | > 200 µM | –
CCOC(=O)C1=C(C#N)S(=O)(=O)c2c(oc(C)c2C)N1 | > 200 µM | > 200 µM | –
CCCCCCCCCCO/N=C\c1c2c(O)c3c(O)c(C)c4c(c3c1O)C(=O)C(C)(O/C=C\C(OC)C(C)C(OC(C)=O)C(C)C(O)C(C)C(O)C(C)/C=C\C=C(\C)C(=O)N2)O4 (configuration not stated) | > 200 µM | 3.02 µM | –
Nc1nc(-c2ccco2)cc(-c2ccco2)n1 | > 115 µM | > 115 µM | –
O=C(N/C(=C\c1cccc([N+](=O)[O-])c1)c1nc2[nH]c(=S)[nH]c(=O)c2[nH]1)c1ccccc1 | – | – | inactive
CC(=O)OC1C(OC(C)=O)[C@@]2(C)C(C(O)[C@@H]3C2C(C)C=C2OC(=O)[C@@](C)(O)[C@@]23C)[C@H]2C1[C@]1(C)C(C[C@@H]3O[C@@H]3C1OC(C)=O)C(=O)[C@@H]2O (some centres not stated) | – | – | inactive
CCc1cccc(CC)c1Nc1nc2c(s1)C(=O)c1ccccc1C2=O | > 200 µM | 33.1 µM | –
N#Cc1nc(/C=C/c2cccnc2)oc1N | > 200 µM | > 200 µM | –
COC(=Nc1ccccc1)SSC(C)C | > 200 µM | 2.82 µM | –
CC(C)CC1NC(=O)C(CC(C)C)N(CO)C1=O (configuration not stated) | > 200 µM | > 200 µM | –
O=c1[nH]c2ccccc2c(O)c1-[n+]1ccccc1 | > 200 µM | > 200 µM | –
C[N+](C)(C)CC1CCCC/C1=N\OC(=O)c1ccccc1 (configuration not stated) | > 603 µM | 575 µM | –
O=c1n(C2CCCCC2)c(=C(Cl)Cl)c(=C(Cl)Cl)n1C1CCCCC1 | > 200 µM | > 200 µM | –
Cc1ccsc1C(=O)C(CC(=O)c1cccs1)c1ccsc1 (configuration not stated) | – | – | inactive

SMILES | EC50 | IC50 | outcome
c1ccc2c(c1)Cc1cn3c(nc1-2)nc1ccccc13 | > 200 µM | 129 µM | –
CCSC(SCC)=C1C(=O)N(c2ccccc2)N=C1C | > 44.7 µM | > 44.7 µM | –
O=C(c1ccccc1)c1cc2c([nH]c1=O)CCCCC2 | > 200 µM | 135 µM | –
C=C1C(=O)OC2C3C(=C)[C@@H](OC(C)=O)CC3C(C)=CC(OC(=O)C(C)(O)C(C)OC(C)=O)[C@@H]12 (some centres not stated) | > 200 µM | > 200 µM | –
O=S1c2ccccc2S(=O)c2ccccc21 (configuration not stated) | > 200 µM | > 200 µM | –
NC1=Nc2ccccc2Sc2nncn21 | > 200 µM | 151 µM | –
C=C1CC(Cn2cc(C)c(=O)[nH]c2=O)(c2ccc(Cl)cc2)OC1=O (configuration not stated) | > 20 µM | 0.617 µM | –
COc1cc(N(C)C)ccc1/C=C\c1ccnc2ccccc12 | > 200 µM | 13.5 µM | –
O=c1[nH]c(NCc2cccnc2)nc2nc[nH]c12 | > 200 µM | > 200 µM | –
COc1ccc(/C(C)=N/NC(=O)c2ccncc2)c(OC)c1 | > 417 µM | 363 µM | –
O=C(CCCn1ccnc1[N+](=O)[O-])NCCn1cnc([N+](=O)[O-])c1 | > 200 µM | > 200 µM | –
COC(=O)C1(F)C(=O)NC(=O)NC1OC (configuration not stated) | > 1120 µM | 17.4 µM | –
CCOP(=O)(OCC)/C(C#N)=C/c1coc2cc(C)cc(C)c2c1=O | > 200 µM | > 200 µM | –
Cc1cccc(NC(=S)Nc2ccc([N+](=O)[O-])cc2)n1 | > 200 µM | > 200 µM | –
O=C1NC(=Nc2ccccc2Cl)SC1C(=O)Nc1ccc([N+](=O)[O-])cc1[N+](=O)[O-] (configuration not stated) | > 115 µM | > 115 µM | –
CC(C)(C)OC(=O)NCCCCCCC(=O)Cc1ccccc1 | > 200 µM | 117 µM | –
CCOC(=O)c1ccc(C(=O)/C(C#N)=C2\CCCN2)[nH]1 | > 200 µM | 89.1 µM | –
COc1cc(Oc2nc3ccc(C(F)(F)F)cc3nc2-c2ccccc2)cc(OC)c1OC | > 93.3 µM | 57.5 µM | –
COC(=O)c1cncc2c1CC1C3(C(=O)OC)C=NC(C4C(CO)=CCC43)C21C (configuration not stated) | – | – | inactive
Nc1nc(Cl)c(N)c(NCC2(CO)CCCC2)n1 | > 200 µM | 102 µM | –
COc1cc2c3c(c1)nnn3C(=O)C(C)S2 (configuration not stated) | – | – | inactive

Reference: PubChem BioAssay AID179 (DTP/NCI, 2004)
